Values quoted from earlier work in paper PMC10664590 (Chemical Science, 2023).

- long-wavelength absorption maximum: around 330 nm
- fluorescence maximum (in ethanol): around 380 nm
SMILES: O=c1ccc2ccc(O)cc2o1 [7-hydroxy-cumarine]
